Measured values reported in patent US7118895B2, “Process for producing aglycon by using diglycosidase and flavor-improved food containing the aglycon and converting agent to be used in the process” (Amano Enzyme Inc., priority 2000, dated 2006).

Tested on: Crude diglycosidase
Assay: Examination of substrate concentration in the conversion into isoflavone aglycons by diglycosidase using soybean materials;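 further: percent of the isoflavone family total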
Format: biochemical, Penicillium multicolor IAM7153
Summary of the method: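 Soybean materials (roasted soy flour, soymilk, defatted soybean, concentrated soy protein) at 2–30% (w/v) in 20 mM acetate pH 4.0 were reacted with crude diglycosidase at 55° C with shaking; enzyme solution added was 1.88 AU/mL. Samples taken at 0, 1, 3 and 6 h were ethanol-extracted and analyzed by HPLC.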

- Decomposition efficiency: ratio of each glycoside/aglycon within its isoflavone family (defatted soybean, substrate concentration 10%, heat treatment of enzyme no, reaction time 1 h): not detected
- Decomposition efficiency: ratio of each glycoside/aglycon within its isoflavone family (defatted soybean, substrate concentration 10%, heat treatment of enzyme no, reaction time 3 h): not detected
- Decomposition efficiency: ratio of each glycoside/aglycon within its isoflavone family (defatted soybean, substrate concentration 10%, heat treatment of enzyme no, reaction time 6 h): not detected
- Decomposition efficiency: ratio of each glycoside/aglycon within its isoflavone family (defatted soybean, substrate concentration 10%, heat treatment of enzyme yes, reaction time 6 h): not detected
- Decomposition efficiency: ratio of each glycoside/aglycon within its isoflavone family (roasted soy flour, substrate concentration 2%, heat treatment of enzyme no, reaction time 0 h): 50.2%
- Decomposition efficiency: ratio of each glycoside/aglycon within its isoflavone family (roasted soy flour, substrate concentration 2%, heat treatment of enzyme no, reaction time 1 h): not detected
- Decomposition efficiency: ratio of each glycoside/aglycon within its isoflavone family (roasted soy flour, substrate concentration 2%, heat treatment of enzyme no, reaction time 3 h): not detected
- Decomposition efficiency: ratio of each glycoside/aglycon within its isoflavone family (roasted soy flour, substrate concentration 2%, heat treatment of enzyme no, reaction time 6 h): not detected
- Decomposition efficiency: ratio of each glycoside/aglycon within its isoflavone family (roasted soy flour, substrate concentration 2%, heat treatment of enzyme yes, reaction time 6 h): 53.4%
- Decomposition efficiency: ratio of each glycoside/aglycon within its isoflavone family (roasted soy flour, substrate concentration 5%, heat treatment of enzyme no, reaction time 0 h): 54.8%
- Decomposition efficiency: ratio of each glycoside/aglycon within its isoflavone family (roasted soy flour, substrate concentration 5%, heat treatment of enzyme no, reaction time 1 h): not detected
- Decomposition efficiency: ratio of each glycoside/aglycon within its isoflavone family (roasted soy flour, substrate concentration 5%, heat treatment of enzyme no, reaction time 3 h): not detected
- Decomposition efficiency: ratio of each glycoside/aglycon within its isoflavone family (roasted soy flour, substrate concentration 5%, heat treatment of enzyme no, reaction time 6 h): not detected
- Decomposition efficiency: ratio of each glycoside/aglycon within its isoflavone family (roasted soy flour, substrate concentration 5%, heat treatment of enzyme yes, reaction time 6 h): 54.8%
- Decomposition efficiency: ratio of each glycoside/aglycon within its isoflavone family (roasted soy flour, substrate concentration 10%, heat treatment of enzyme no, reaction time 0 h): 70.3%
- Decomposition efficiency: ratio of each glycoside/aglycon within its isoflavone family (roasted soy flour, substrate concentration 10%, heat treatment of enzyme no, reaction time 1 h): not detected
- Decomposition efficiency: ratio of each glycoside/aglycon within its isoflavone family (roasted soy flour, substrate concentration 10%, heat treatment of enzyme no, reaction time 3 h): not detected
- Decomposition efficiency: ratio of each glycoside/aglycon within its isoflavone family (roasted soy flour, substrate concentration 10%, heat treatment of enzyme no, reaction time 6 h): not detected
- Decomposition efficiency: ratio of each glycoside/aglycon within its isoflavone family (roasted soy flour, substrate concentration 10%, heat treatment of enzyme yes, reaction time 6 h): 55.0%
- Decomposition efficiency: ratio of each glycoside/aglycon within its isoflavone family (roasted soy flour, substrate concentration 20%, heat treatment of enzyme no, reaction time 0 h): 59.6%
- Decomposition efficiency: ratio of each glycoside/aglycon within its isoflavone family (roasted soy flour, substrate concentration 20%, heat treatment of enzyme no, reaction time 1 h): not detected
- Decomposition efficiency: ratio of each glycoside/aglycon within its isoflavone family (roasted soy flour, substrate concentration 20%, heat treatment of enzyme no, reaction time 3 h): not detected
- Decomposition efficiency: ratio of each glycoside/aglycon within its isoflavone family (roasted soy flour, substrate concentration 20%, heat treatment of enzyme no, reaction time 6 h): not detected
- Decomposition efficiency: ratio of each glycoside/aglycon within its isoflavone family (roasted soy flour, substrate concentration 20%, heat treatment of enzyme yes, reaction time 6 h): 56.0%
- Decomposition efficiency: ratio of each glycoside/aglycon within its isoflavone family (roasted soy flour, substrate concentration 30%, heat treatment of enzyme no, reaction time 0 h): 55.9%
- Decomposition efficiency: ratio of each glycoside/aglycon within its isoflavone family (roasted soy flour, substrate concentration 30%, heat treatment of enzyme no, reaction time 1 h): not detected
- Decomposition efficiency: ratio of each glycoside/aglycon within its isoflavone family (roasted soy flour, substrate concentration 30%, heat treatment of enzyme no, reaction time 3 h): not detected
- Decomposition efficiency: ratio of each glycoside/aglycon within its isoflavone family (roasted soy flour, substrate concentration 30%, heat treatment of enzyme no, reaction time 6 h): not detected
- Decomposition efficiency: ratio of each glycoside/aglycon within its isoflavone family (roasted soy flour, substrate concentration 30%, heat treatment of enzyme yes, reaction time 6 h): 56.9%
- Decomposition efficiency: ratio of each glycoside/aglycon within its isoflavone family (soymilk, substrate concentration 2%, heat treatment of enzyme no, reaction time 0 h): 71.8%
- Decomposition efficiency: ratio of each glycoside/aglycon within its isoflavone family (soymilk, substrate concentration 2%, heat treatment of enzyme no, reaction time 1 h): not detected
- Decomposition efficiency: ratio of each glycoside/aglycon within its isoflavone family (soymilk, substrate concentration 2%, heat treatment of enzyme no, reaction time 3 h): not detected
- Decomposition efficiency: ratio of each glycoside/aglycon within its isoflavone family (soymilk, substrate concentration 2%, heat treatment of enzyme no, reaction time 6 h): not detected
- Decomposition efficiency: ratio of each glycoside/aglycon within its isoflavone family (soymilk, substrate concentration 2%, heat treatment of enzyme yes, reaction time 6 h): 51.8%
- Decomposition efficiency: ratio of each glycoside/aglycon within its isoflavone family (soymilk, substrate concentration 5%, heat treatment of enzyme no, reaction time 0 h): 49.4%
- Decomposition efficiency: ratio of each glycoside/aglycon within its isoflavone family (soymilk, substrate concentration 5%, heat treatment of enzyme no, reaction time 1 h): not detected
- Decomposition efficiency: ratio of each glycoside/aglycon within its isoflavone family (soymilk, substrate concentration 5%, heat treatment of enzyme no, reaction time 3 h): not detected
- Decomposition efficiency: ratio of each glycoside/aglycon within its isoflavone family (soymilk, substrate concentration 5%, heat treatment of enzyme no, reaction time 6 h): not detected
- Decomposition efficiency: ratio of each glycoside/aglycon within its isoflavone family (soymilk, substrate concentration 5%, heat treatment of enzyme yes, reaction time 6 h): 56.7%
- Decomposition efficiency: ratio of each glycoside/aglycon within its isoflavone family (soymilk, substrate concentration 10%, heat treatment of enzyme no, reaction time 0 h): 52.5%
- Decomposition efficiency: ratio of each glycoside/aglycon within its isoflavone family (soymilk, substrate concentration 10%, heat treatment of enzyme no, reaction time 1 h): not detected
- Decomposition efficiency: ratio of each glycoside/aglycon within its isoflavone family (soymilk, substrate concentration 10%, heat treatment of enzyme no, reaction time 3 h): not detected
- Decomposition efficiency: ratio of each glycoside/aglycon within its isoflavone family (soymilk, substrate concentration 10%, heat treatment of enzyme no, reaction time 6 h): not detected
- Decomposition efficiency: ratio of each glycoside/aglycon within its isoflavone family (soymilk, substrate concentration 10%, heat treatment of enzyme yes, reaction time 6 h): 56.8%
- Decomposition efficiency: ratio of each glycoside/aglycon within its isoflavone family (soymilk, substrate concentration 20%, heat treatment of enzyme no, reaction time 0 h): 52.4%
- Decomposition efficiency: ratio of each glycoside/aglycon within its isoflavone family (soymilk, substrate concentration 20%, heat treatment of enzyme no, reaction time 1 h): not detected
- Decomposition efficiency: ratio of each glycoside/aglycon within its isoflavone family (soymilk, substrate concentration 20%, heat treatment of enzyme no, reaction time 3 h): not detected
- Decomposition efficiency: ratio of each glycoside/aglycon within its isoflavone family (soymilk, substrate concentration 20%, heat treatment of enzyme no, reaction time 6 h): not detected
- Decomposition efficiency: ratio of each glycoside/aglycon within its isoflavone family (soymilk, substrate concentration 20%, heat treatment of enzyme yes, reaction time 6 h): 55.5%
- Decomposition efficiency: ratio of each glycoside/aglycon within its isoflavone family (soymilk, substrate concentration 30%, heat treatment of enzyme no, reaction time 0 h): 50.9%
- Decomposition efficiency: ratio of each glycoside/aglycon within its isoflavone family (soymilk, substrate concentration 30%, heat treatment of enzyme no, reaction time 1 h): not detected
- Decomposition efficiency: ratio of each glycoside/aglycon within its isoflavone family (soymilk, substrate concentration 30%, heat treatment of enzyme no, reaction time 3 h): not detected
- Decomposition efficiency: ratio of each glycoside/aglycon within its isoflavone family (soymilk, substrate concentration 30%, heat treatment of enzyme no, reaction time 6 h): not detected
- Decomposition efficiency: ratio of each glycoside/aglycon within its isoflavone family (soymilk, substrate concentration 30%, heat treatment of enzyme yes, reaction time 6 h): 55.8%
SMILES: COc1cc2c(=O)c(-c3ccc(O)cc3)coc2cc1O[C@@H]1O[C@H](CO)[C@@H](O)[C@H](O)[C@H]1O [glycitin]
